The text below walks through data of patent US12545745B2, “Method for treating a degenerative neurological disorders comprising administering ASM inhibitor” (KYUNGPOOK NATIONAL UNIVERSITY INDUSTRY-ACADEMIC COOPERATION …, priority 2013, dated 2026).

Structures can show the parent of a compound that is named as a salt.

In data set [1] the target is T1, ASM (Mus musculus, UniProt Q04519).
T1 construct: from tissue; host or cells: mouse serum/plasma and brain tissue (APP/PS1, RSD-stressed C57BL/6, FUS R521C mice)
T1 sequence (Q04519 45-627): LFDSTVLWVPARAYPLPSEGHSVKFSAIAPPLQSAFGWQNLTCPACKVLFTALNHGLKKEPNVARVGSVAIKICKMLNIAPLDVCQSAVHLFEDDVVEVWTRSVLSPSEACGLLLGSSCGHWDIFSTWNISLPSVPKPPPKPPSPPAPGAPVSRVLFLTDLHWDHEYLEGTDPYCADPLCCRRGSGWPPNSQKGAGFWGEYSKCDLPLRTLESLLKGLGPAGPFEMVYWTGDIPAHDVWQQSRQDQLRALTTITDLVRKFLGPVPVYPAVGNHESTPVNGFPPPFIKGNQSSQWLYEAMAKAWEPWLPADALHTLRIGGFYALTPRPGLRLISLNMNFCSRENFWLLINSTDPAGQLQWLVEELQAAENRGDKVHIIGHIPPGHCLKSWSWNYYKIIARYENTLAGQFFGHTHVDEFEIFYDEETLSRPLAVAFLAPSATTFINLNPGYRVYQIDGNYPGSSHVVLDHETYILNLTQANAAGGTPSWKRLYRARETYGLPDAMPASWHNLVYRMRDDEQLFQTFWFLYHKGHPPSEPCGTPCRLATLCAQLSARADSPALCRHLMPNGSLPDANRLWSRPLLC
The data set can be described thus: ASM activity / concentration level in serum (plasma) and brain tissue of APP/PS1 mice (UPLC). It is filed as in vivo. The settings on record: APP/PS1 mice, AMI administered for four months, nine month old; FIG. 24.
Experimental: More specifically, 3 μl of plasma, brain tissue and fibroblast samples from each mouse were mixed with an ASM activity buffer, and stored at 37° C. The hydrolysis reaction was completed by adding 114 μl of ethanol to the mixed solution, and then the mixed solution was centrifuged. 30 μl of the supernatant was transferred into a glass vial, and then 5 μl was applied to the UPLC system. The ASM concentration level was quantified in comparison with a bodipy (aminoacetaldehyde) combined with sphingomyelin and ceramide. The sphingomyelin and ceramide levels were extracted and quantified according to a known method, by extracting lipid from the sample, resuspending the dried lipid extract in 25 μl of 0.2% Igepal CA-630 (Sigma-Aldrich), and quantifying the concentration level of each lipid using the UPLC system. […] The animal test conducted was approved by the Kyungpook National University Institutional Animal Care and Use Committee (IACUC). Transgenic mouse line overexpressing APPswe (hAPP695swe) and PS1 (presenilin-1M146V) based on C57BL/6 mice (Charles River, UK) were used as Alzheimer's animal models [hereinafter, APP mice: mice overexpressing APPswe, PS1 mice: overexpressing presenilin-1M146V; GlaxoSmithKline]. […] The concentration level of ASM was measured as follows. Specifically, 3μ ? of mouse serum, brain tissue and fibroblast samples were mixed with ASM activity buffer and stored at 37° C. 114 μ ? of ethanol was added to terminate the hydrolysis reaction, followed by centrifugation. […] The ASM concentration levels were quantified by comparison with sphingomyelin and Bodipy (aminoacetaldehyde) conjugated with ceramide. The extraction and quantification of the sphingomyelin and ceramide was carried out by extracting and drying the lipids from the sample according to a known conventional method, and resuspending the dried lipid extract to 25 μl of 0.2% Igepal CA-630 (Sigma-Aldrich), and the concentration levels of each lipid were quantitated using the UPLC system. […] The concentration level of ASM was measured as follows. […]

Data set [2] relates to β-amyloid. The data set can be described thus: β-amyloid deposition in brain tissue of APP/PS1 mice (thioflavin S, immunofluorescence, ELISA). It is filed as in vivo, mouse. The settings on record: cerebral cortex and hippocampus, AMI for four months, FIG. 25. The method, then:
First, the cerebral cortex and hippocampus tissue of each mouse prepared in Example 1-1 were isolated, and then a tissue fragment was obtained and this was dyed with thioflavin S according to a conventional known method. The results are illustrated in FIG. 3 (cerebral cortex) and FIG. 4 (hippocampus).
Also, immunofluorescence was performed according to a conventional known method using anti-20G10 (mouse, 1:1000) antibody against Aβ42, anti-G30 (rabbit, […]) antibody against Aβ40, anti-Iba-1 (rabbit, 1:500, Wako) antibody, anti-GFAP (rabbit, 1:500, DAKO) antibody and anti-active caspase3 (rabbit, 1:50, Chemicon) antibody. Tissue fragments were observed using a confocal laser scanning microscope equipped with Fluoview SV1000 imaging software (Olympus FV1000, Japan) or an Olympus BX51 microscope, and the percentage of the area of the dyed area with respect to the area of the entire tissue was quantified using Metamorph software (Molecular Devices).
Also, β-amyloid deposition was confirmed using commercially available ELISA kits (Biosource). More specifically, hemispheres of the brain of each mouse were homogenized in a buffer containing 0.02 M of guanidine. Thereafter, ELISA was performed for Aβ40 and Aβ42 according to the manufacturer's instructions.
After fixing the cerebral and hippocampal tissues of the mice, 0.5% thioflavin S (Sigma-Aldrich), anti-20G10 antibodies (mouse, 1:1000) against Aβ42, anti-G30 antibodies (rabbit, […]) against Aβ40, anti-GFAP antibodies (rabbit, 1:500, DAKO), or anti-Iba-1 antibodies (rabbit, 1:500, Wako) were co-cultured. The tissues were analyzed using a laser scanning confocal microscope equipped with Fluoview SV1000 imaging software (Olympus FV1000, Japan) or an Olympus BX51 microscope. Percentage of stained area to total tissue area was quantified and analyzed using Metamorph software (Molecular Devices).
After fixing the mouse brain and hippocampus, 0.5% thioflavin S (Sigma-Aldrich), anti-GFAP (rabbit, 1:500, DAKO), and anti-Iba-1 (rabbit, 1:500, WAKO) were co-cultured together. The regions were analyzed using a laser scanning confocal microscope equipped with Fluoview SV1000 imaging software (Olympus FV1000, Japan) or an Olympus BX51 microscope. Percentage of stained area to total tissue area was quantified and analyzed using Metamorph software (Molecular Devices).
Proteins were extracted from mouse brain and hippocampus, and the amounts of Abeta40 (KHB3481, Invitrogen) and Abeta42 (KHB3441, Invitrogen) were measured using ELISA.
For orientation: ELISA stands for enzyme-linked immunosorbent assay.

Data set [3] relates to APP/PS1 mice. In words: Morris water maze (MWM) test in APP/PS1 mice. The format is in vivo, mouse. Particulars: AMI for four months, vs control group, FIG. 26. The method, then: More specifically, wild type mice, APP/PS1/ASM^+/− mice, ASM^+/− mice and APP/PS1 mice were used. The mice were given four trials per day for 10 days to learn the task, and on day 11, the mice were given a probe trial in which the platform was removed. The escape latency during the test period and the time spent in the target platform on day 11 were measured. The results are illustrated in FIG. 7 and FIG. 8.
MWM (Morris water maze) experiments were performed in a conventional manner to identify potential effects on learning and memory. Briefly, for the MWM test, mouse were learned the task four times a day for 10 days, followed by the removal of the platform on the 11th day and subsequently a probe trial performed.
MWM (Morris water maze) experiments were performed in a conventional manner to identify potential effects on learning and memory. Briefly, for the MWM test, mice were learned the task four times a day for 10 days, followed by the removal of the platform on the 11th day and subsequently a probe trial performed.

Data set [4] concerns human fibroblast. The data set can be described thus: Autophagy (LC3-I to LC3-II conversion) in human fibroblast treated with recombinant ASM, M6P or NH4Cl. It is filed as cell-based. The method, then:
Human fibroblast acquired from the Coriell Institute, and was cultured in DMEM medium containing 15% FBS at 37° C. and 5% of CO2. The cell lines were treated with recombinant ASM (1 μM to 10 μM), and then Western blotting and densitometric quantification were performed in the same manner as Example 2-1. The results are illustrated in FIG. 17 and FIG. 18.
In order to confirm how ASM affects autophagy, a test was conducted as follows. Human fibroblast was treated with ASM alone, or treated with ASM in the presence of mannose-6-phosphate (M6P; 10 mM) relating to the action of placing lysosomal enzyme protein in lysosome, and then the accumulation of autophagosome was confirmed using Western blotting and densitometric quantification. The results are illustrated in FIG. 19.
In order to confirm whether ASM increases the formation rate of autophagosome, or decreases the degradation rate of autophagosome, autophagic flux assay was performed. […] The results are illustrated in FIG. 20.
Also, when treating with NH4Cl or ASM after culturing fibroblast of human with Alzheimer's disease in a serum-free medium or complete medium, the conversion rate from LC3-I to LC3-II was measured using Western blotting. The results are illustrated in FIG. 21 and FIG. 22.

[5] abbreviates: human fibroblast treated with ASM in the presence of M6P 10 mM, FIG. 19.
Where [6] appears, read: human fibroblast, recombinant ASM 1 μM to 10 μM, FIG. 17, 18.

Regarding `CN(C)CCC=C1c2ccccc2CCc2ccccc21` [AMI, amitriptyline-hydrochloride, reference compound], in data set [1], the “ASM in brain tissue” value was “decreased” and the ASM in serum entry is “decreased”. In addition, the “deposition of β-amyloid” value in data set [2] is reported as “inhibited”. Moreover, the “ability to remember (escape latency, MWM)” value in data set [3] is reported as “recovered by decrease in escape latency”.
Consider `O=C[C@@H](O)[C@@H](O)[C@H](O)[C@H](O)COP(=O)(O)O` [M6P, mannose-6-phosphate, reference compound], for which, in data set [4] (setting [5]), the “accumulation of ASM-induced autophagosome” value was “decreased” and the “conversion to LC3-II” value was “decreased”.
Regarding `Cl.N` [NH4Cl, reference compound], the LC3-II level result in data set [4] (fibroblast of human with Alzheimer's disease, serum-free medium (autophagy induced), NH4Cl added, FIG. 21) is recorded as “increased significantly”.

B1: recombinant ASM: recombinant acid sphingomyelinase protein used to treat human fibroblast (protein)
chain: LALSDSRVLWAPAEAHPLSPQGHPARLHRIVPRLRDVFGWGNLTCPICKGLFTAINLGLKKEPNVARVGSVAIKLCNLLKIAPPAVCQSIVHLFEDDMVEVWRRSVLSPSEACGLLLGSTCGHWDIFSSWNISLPTVPKPPPKPPSPPAPGAPVSRILFLTDLHWDHDYLEGTDPDCADPLCCRRGSGLPPASRPGAGYWGEYSKCDLPLRTLESLLSGLGPAGPFDMVYWTGDIPAHDVWHQTRQDQLRALTTVTALVRKFLGPVPVYPAVGNHESTPVNSFPPPFIEGNHSSRWLYEAMAKAWEPWLPAEALRTLRIGGFYALSPYPGLRLISLNMNFCSRENFWLLINSTDPAGQLQWLVGELQAAEDRGDKVHIIGHIPPGHCLKSWSWNYYRIVARYENTLAAQFFGHTHVDEFEVFYDEETLSRPLAVAFLAPSATTYIGLNPGYRVYQIDGNYSGSSHVVLDHETYILNLTQANIPGAIPHWQLLYRARETYGLPNTLPTAWHNLVYRMRGDMQLFQTFWFLYHKGHPPSEPCGTPCRLATLCAQLSARADSPALCRHLMPDGSLPEAQSLWPRPLFC
B1: the “amount of LC3-II (autophagic flux assay)” value in data set [4] (cells treated with ASM and NH4Cl, FIG. 20) is “no significant change”. For the same molecule, the “accumulation of LC3-II” value in data set [4] (fibroblast of human with Alzheimer's disease, serum-free medium (autophagy induced), treated with ASM, FIG. 22) is reported as “increased significantly”. In data set [4] (setting [6]), the “conversion from LC3-I to LC3-II” value is “takes place depending on the concentration” and the “expression of beclin-1” value was “no significant change”.
